The values that follow come from PMC6650409, “Modeling the binding of diverse ligands within the Ah receptor ligand binding domain” (Scientific Reports, 2019).

The target of experiment [1] is T1, P291L AhR (Mus musculus, UniProt P30561, P291L).
T1 construct: made in house; host or cells: in vitro, Promega TNT Quick rabbit reticulocyte lysate
T1 sequence (P30561 10-848 P291L): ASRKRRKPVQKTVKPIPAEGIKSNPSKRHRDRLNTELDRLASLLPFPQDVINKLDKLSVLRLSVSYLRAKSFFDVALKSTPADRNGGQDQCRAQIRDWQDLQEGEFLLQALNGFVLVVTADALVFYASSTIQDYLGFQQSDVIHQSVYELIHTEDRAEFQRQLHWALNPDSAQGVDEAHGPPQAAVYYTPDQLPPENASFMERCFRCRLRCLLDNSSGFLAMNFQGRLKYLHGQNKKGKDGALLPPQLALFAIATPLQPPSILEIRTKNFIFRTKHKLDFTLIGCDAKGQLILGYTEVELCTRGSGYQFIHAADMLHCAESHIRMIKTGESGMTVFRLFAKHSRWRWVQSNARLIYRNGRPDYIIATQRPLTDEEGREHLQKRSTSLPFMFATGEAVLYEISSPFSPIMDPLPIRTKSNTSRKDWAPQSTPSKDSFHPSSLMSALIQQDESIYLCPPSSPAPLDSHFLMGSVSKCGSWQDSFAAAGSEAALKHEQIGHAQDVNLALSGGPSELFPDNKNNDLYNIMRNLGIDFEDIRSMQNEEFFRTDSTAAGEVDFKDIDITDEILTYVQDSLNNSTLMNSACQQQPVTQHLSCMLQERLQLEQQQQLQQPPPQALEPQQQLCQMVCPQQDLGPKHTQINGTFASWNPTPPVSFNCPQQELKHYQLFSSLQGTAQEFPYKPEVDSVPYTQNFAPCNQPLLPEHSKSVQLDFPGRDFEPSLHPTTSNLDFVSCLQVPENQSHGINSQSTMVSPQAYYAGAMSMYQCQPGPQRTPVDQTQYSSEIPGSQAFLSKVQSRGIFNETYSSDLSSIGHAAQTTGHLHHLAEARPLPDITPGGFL
The experiment can be described thus: [3H]TCDD competitive ligand binding, P291L mutant AhR. The conditions noted are these: for change of relative binding affinity versus wild-type AhR: P291L substitution, in words. As for the experimental part:
The mouse AhR (mAhR) and ARNT (mARNT) expression plasmids, mβAhR/pcDNA3 and mβArnt/pcDNA3, have been previously described. Point mutations of mβAhR/pcDNA3 were carried out using the QuikChange Lightning Mutagenesis Kit (Agilent Technologies) and all constructs were verified by sequencing.
[^3H]TCDD specific binding to wild-type or mutant mAhRs synthesized in vitro using the Promega TNT Quick coupled transcription/translation rabbit reticulocyte lysate kit (Madison, WI) was carried out as previously described. [^3H]TCDD specific binding was determined by subtracting the amount of [^3H]TCDD bound to unprogrammed lysate (nonspecific binding) from the total amount of [^3H]TCDD binding to lysate containing in vitro expressed AhR. The amount of [^3H]TCDD specific binding remaining in the presence of the indicated competitor chemical was expressed as a percent of the total [^3H]TCDD specific binding. The relative binding affinity (IC50) of each chemical was determined from concentration-dependent competitive inhibition curves obtained using [^3H]TCDD and increasing concentrations of each test chemical and the mean IC50 value was determined using three-parameter non-linear regression.

Experiment [2] deals with T2, L302A mutant AhR (Mus musculus, UniProt P30561, L302A).
T2 construct: made in house; host or cells: in vitro transcription/translation (rabbit reticulocyte lysate)
T2 sequence (P30561 10-848 L302A): T1 sequence (P30561 10-848 P291L) with L282P, L293A
On the set-up: method as in PMID 21981577. The conditions noted are these: L302A mutation; cited from earlier work.

Experiment [3] deals with T3, L309A mutant AhR (Mus musculus, UniProt P30561, L309A).
T3 construct: made in house; host or cells: in vitro transcription/translation (rabbit reticulocyte lysate)
T3 sequence (P30561 10-848 L309A): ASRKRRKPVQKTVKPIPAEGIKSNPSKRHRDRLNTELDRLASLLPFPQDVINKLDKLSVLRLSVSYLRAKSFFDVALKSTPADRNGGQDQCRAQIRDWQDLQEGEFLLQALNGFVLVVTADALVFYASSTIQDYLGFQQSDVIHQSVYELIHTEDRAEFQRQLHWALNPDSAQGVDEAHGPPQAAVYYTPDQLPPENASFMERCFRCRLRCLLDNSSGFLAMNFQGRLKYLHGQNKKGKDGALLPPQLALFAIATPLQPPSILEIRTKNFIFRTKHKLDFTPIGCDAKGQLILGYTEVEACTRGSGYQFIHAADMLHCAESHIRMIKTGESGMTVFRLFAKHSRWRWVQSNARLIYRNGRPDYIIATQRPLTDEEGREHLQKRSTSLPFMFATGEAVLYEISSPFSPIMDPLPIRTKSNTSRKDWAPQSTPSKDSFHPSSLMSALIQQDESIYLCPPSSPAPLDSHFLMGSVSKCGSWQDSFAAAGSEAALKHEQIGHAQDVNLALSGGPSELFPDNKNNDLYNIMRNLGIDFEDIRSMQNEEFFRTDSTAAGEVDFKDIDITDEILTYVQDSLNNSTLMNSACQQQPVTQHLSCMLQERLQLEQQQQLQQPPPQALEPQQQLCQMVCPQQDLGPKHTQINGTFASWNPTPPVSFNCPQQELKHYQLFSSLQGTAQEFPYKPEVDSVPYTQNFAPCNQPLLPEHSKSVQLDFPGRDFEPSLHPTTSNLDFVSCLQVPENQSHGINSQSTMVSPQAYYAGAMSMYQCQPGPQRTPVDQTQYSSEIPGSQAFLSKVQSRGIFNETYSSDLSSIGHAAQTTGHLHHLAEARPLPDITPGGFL
T3 sequence (P53762 whole entry partner): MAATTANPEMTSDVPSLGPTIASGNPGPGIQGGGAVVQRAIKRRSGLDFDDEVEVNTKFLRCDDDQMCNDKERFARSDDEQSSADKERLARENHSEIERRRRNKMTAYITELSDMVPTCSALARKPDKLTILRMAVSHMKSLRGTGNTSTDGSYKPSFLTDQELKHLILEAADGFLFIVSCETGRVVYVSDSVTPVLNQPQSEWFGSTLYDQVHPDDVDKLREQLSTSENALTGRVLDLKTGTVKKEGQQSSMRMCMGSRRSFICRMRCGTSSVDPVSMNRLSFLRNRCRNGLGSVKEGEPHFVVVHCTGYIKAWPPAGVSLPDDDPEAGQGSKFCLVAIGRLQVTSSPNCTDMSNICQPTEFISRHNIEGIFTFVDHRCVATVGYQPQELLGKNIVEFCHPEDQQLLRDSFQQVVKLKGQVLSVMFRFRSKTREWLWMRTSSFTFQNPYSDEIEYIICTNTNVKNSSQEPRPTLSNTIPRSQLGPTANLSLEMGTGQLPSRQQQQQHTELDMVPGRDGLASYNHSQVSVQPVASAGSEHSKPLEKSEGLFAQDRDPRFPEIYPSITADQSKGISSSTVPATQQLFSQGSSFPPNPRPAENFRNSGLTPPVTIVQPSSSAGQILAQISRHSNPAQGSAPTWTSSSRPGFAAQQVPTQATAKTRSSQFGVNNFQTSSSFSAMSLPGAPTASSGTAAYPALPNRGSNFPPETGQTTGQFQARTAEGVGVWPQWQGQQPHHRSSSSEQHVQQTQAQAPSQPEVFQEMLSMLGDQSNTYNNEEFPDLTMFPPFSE
On the set-up: method as in PMID 21981577. The conditions noted are these: L309A mutation; cited from earlier work.

[4] abbreviates: Table S6, AhR mutant P291L, read-out: IC50.

Substitutions are numbered along the chain they refer to. Read-outs that look alike come from different tables or passages of the source.

Regarding `c1ccc2c(c1)cc1ccc3cccc4ccc2c1c34` [BaP, Benzo(a)pyrene], the “change of relative binding affinity versus wild-type AhR” value in experiment [1] is “not statistically significant”. For the same molecule, the IC50 (in general, the concentration needed to halve the response being measured) in experiment [1] (setting [4]) turned out to be 604 nM.
Regarding `Clc1cc2c(cc1Cl)Oc1cc(Cl)c(Cl)cc1O2` [TCDD, 2,3,7,8-tetrachlorodibenzo-p-dioxin], the TCDD binding activity entry in experiment [2] and in experiment [3] was “dramatically reduced” throughout.
For the molecule `Clc1cc2oc3cc(Cl)c(Cl)cc3c2cc1Cl` [TCDF, 2,3,7,8-tetrachlorodibenzofuran], the IC50 in experiment [1] (P291L AhR, read-out: relative affinity (IC50)) stood at 0.04 nM; in experiment [1] (setting [4]) it was 0.0435 nM. Also, the “change of relative binding affinity versus wild-type AhR” value in experiment [1] is “dramatically enhanced”.
